# From patent US20140371171A1, “Aqueous Lock Composition Comprising Ethanol and a Polysaccharide Anticoagulant” (UNIVERSITE D'AUVERGNE CLERMONT I, priority 2012, published 2014)
# Legend:
# Assay type in all cases: physicochemical
# [1] = Ethanol concentration that does not cause the lock composition to precipitate, varying the heparin content; details: observed after 48 hours
# Description: The lock compositions tested were as follows: • composition comprising a mixture of the nadroparin calcium and ethanol • composition comprising a mixture of the tinzaparin sodium and ethanol, • composition comprising a mixture of the dalteparin sodium and ethanol, • composition comprising a mixture of the enoxaparin sodium and ethanol. […] The compositions were tested at ambient temperature and at 37° C. and the results were observed after 48 hours.
# [2] = Visual observation of precipitation in ethanol/enoxaparin sodium mixtures; details: enoxaparin sodium 400 IU/mL
# Description: Various mixtures of ethanol/enoxaparin sodium were prepared in 5 mL glass hemolysis tubes combining either: • a) a fixed concentration of enoxaparin sodium with 400 IU/mL (corresponding to the dose used in an antithrombotic preventive lock) in a range of increasing concentrations of ethanol (30%, 40%, 45%, 50%, 60% and 70% by volume (v/v)), the dilutions of ethanol having been made in physiological serum solution (NaCl in a concentration of 0.9 g/100 ml). • b) increasing concentrations of enoxaparin sodium (50, 100, 400, 500 and 1,000 IU/mL) in an ethanol solution of fixed concentration (40, 45 or 50% v/v). The visual observation of different ethanol/enoxaparin mixtures was carried out by way of an assessment of the presence (or absence) of precipitation at the time of effecting the contacting of the two solutions; the observed phenomena corresponding, either to the absence (level 0 noted −), or the presence of a precipitation. The extent of the precipitation was assessed, either based on the appearance of a cloudiness, or on the formation of a deposit in the form of droplets and the levels were evaluated by the scores: +, ++, +++. […] The observation was monitored over time, that is after 1 minute, 1 hour, 24 hours, 48 hours and 72 hours, of contact, and this was done at two temperatures, 20° C. and 37° C.
# [3] = Assay of enoxaparin by HPLC-ELSD in supernatant; details: enoxaparin sodium 400 IU/mL; ethanol 70% v/v
# Description: The assaying of enoxaparin was performed by a method of coupling high-performance liquid chromatography (HPLC) with an evaporative light scattering detector (ELSD) method. In order to be within the zone of linearity of the detector response, the samples were diluted to one tenth in the physiological serum solution. The analysis was carried out in the mixtures combining enoxaparin sodium 400 IU/mL with increasing concentrations of ethanol (30 to 70% (V/V)), in comparison with a calibration range of the enoxaparin composition (marketed under the trade name Lovenox®) prepared in the physiological serum solution at the following concentrations: 6 IU/mL, 12 IU/mL, 40 IU/mL, 80 IU/mL, 120 IU/mL.
# For the samples presenting a cloudiness effect, a preliminary centrifugation at 1,600 g for 5 minutes was carried out and only the supernatant was subsequently analysed.
# The operating conditions for the chromatographic separation were as follows: • analytical column measuring 150 mm in length and 4.6 mm in diameter, filled with a stationary phase of C18 5 μm. • separation of components in isocratic mode making use of a mixture of methanol/water, 50/50 (V/V) at a flow rate of 0.3 mL/min. • detection using an evaporative light scattering detector (ELSD): evaporation temperature of 40° C., gain of the detector=3 and pressure of nitrogen (nebulizer gas)=3.5 bar.
Substance,Ethanol content (% v/v) at 37° C. that does not cause precipitation ([1]; heparin content 10 IU/mL) [% v/v],Ethanol content (% v/v) at ambient temperature that does not cause precipitation ([1]; heparin content 10 IU/mL) [% v/v],Ethanol content (% v/v) at 37° C. that does not cause precipitation ([1]; heparin content 500 IU/mL) [% v/v],Ethanol content (% v/v) at ambient temperature that does not cause precipitation ([1]; heparin content 500 IU/mL) [% v/v],"Ethanol content (% v/v) at 37° C. that does not cause precipitation ([1]; heparin content 1,000 IU/mL) [% v/v]","Ethanol content (% v/v) at ambient temperature that does not cause precipitation ([1]; heparin content 1,000 IU/mL) [% v/v]",visual appearance of the mixture (cloudiness) ([2]; ethanol 60 and 70% v/v),"visual appearance of the mixture (precipitation) ([2]; ethanol less than or equal to 40% v/v, up to 72 hours at 20° C. or 37° C.)",enoxaparin content levels found in the supernatant after centrifugation [3]
tinzaparin sodium,44.0,42.1,41.0,34.3,38.0,26.3,,,
dalteparin sodium,47.8,44.6,41.9,35.7,35.9,26.7,,,
nadroparin calcium,44.6,43.7,41.7,41.7,38.7,39.7,,,
enoxaparin sodium,48.2,47.6,45.8,40.7,43.3,33.7,the cloudiness increases progressively as the ethanol content increases,remains clear and colourless,not detectable
